Data on nine compounds can be found in US8604021B2, “Substituted arylamine compounds and methods of treatment” (priority 2005, dated 2013).

One assay concerns the target 5-HT6 receptor (Homo sapiens, UniProt P50406). Briefly: 5-HT6 receptor binding.
A short description of assay [1]: Food intake, body weight and plasma biomarkers in DIO (diet-induced obese) rats. The settings on record: DIO rats, 3, 10 mg/kg bid, two weeks. It counts as in vivo.
Another assay concerns the target 5HT2A (Homo sapiens, UniProt P28223). Briefly: Compound Binding Profiles: 5HT2A.
The next assay addresses D3 (Homo sapiens, UniProt P35462). Briefly: Compound Binding Profiles: D3.
The next assay concerns the target D1 (Homo sapiens, UniProt P21728). The experiment in a line: Compound Binding Profiles: D1. The settings on record: read-out: D1 binding class.
For another assay, the target named is T1, 5HT1A (Homo sapiens, UniProt P08908).
T1 sequence (P08908 1-422): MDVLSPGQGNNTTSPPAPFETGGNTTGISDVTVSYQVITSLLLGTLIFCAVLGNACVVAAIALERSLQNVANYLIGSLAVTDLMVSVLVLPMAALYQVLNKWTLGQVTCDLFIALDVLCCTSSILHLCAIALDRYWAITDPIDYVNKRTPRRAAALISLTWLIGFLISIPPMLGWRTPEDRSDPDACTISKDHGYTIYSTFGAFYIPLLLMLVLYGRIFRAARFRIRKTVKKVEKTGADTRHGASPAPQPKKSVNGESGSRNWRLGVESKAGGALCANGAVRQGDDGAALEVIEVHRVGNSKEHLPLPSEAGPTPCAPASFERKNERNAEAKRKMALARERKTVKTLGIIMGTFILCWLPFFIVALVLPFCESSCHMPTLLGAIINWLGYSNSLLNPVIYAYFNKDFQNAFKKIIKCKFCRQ
The experiment in a line: Compound Binding Profiles: 5HT1A. The conditions noted are these: read-out: 5HT1A binding class.

In the next assay the target is H1 (Homo sapiens, UniProt P35367). Briefly: Compound Binding Profiles: H1. The conditions noted are these: * = Estimated IC50.
Chain of H1 (P35367 whole entry): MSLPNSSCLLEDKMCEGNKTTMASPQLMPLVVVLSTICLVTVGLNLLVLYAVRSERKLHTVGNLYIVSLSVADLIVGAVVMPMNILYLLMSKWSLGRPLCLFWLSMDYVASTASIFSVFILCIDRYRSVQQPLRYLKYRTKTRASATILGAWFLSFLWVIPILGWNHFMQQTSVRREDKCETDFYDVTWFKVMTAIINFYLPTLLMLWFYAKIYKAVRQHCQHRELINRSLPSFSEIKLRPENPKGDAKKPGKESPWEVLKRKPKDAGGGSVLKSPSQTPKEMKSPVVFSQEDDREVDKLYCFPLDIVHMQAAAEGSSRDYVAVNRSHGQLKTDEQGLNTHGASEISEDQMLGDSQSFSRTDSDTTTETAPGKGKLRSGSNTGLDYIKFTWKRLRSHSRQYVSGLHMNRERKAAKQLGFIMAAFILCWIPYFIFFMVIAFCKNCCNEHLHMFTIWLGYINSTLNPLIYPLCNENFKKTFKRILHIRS
In a further assay the target is T2, D4 (Homo sapiens, UniProt P21917).
T2 sequence (P21917 1-419): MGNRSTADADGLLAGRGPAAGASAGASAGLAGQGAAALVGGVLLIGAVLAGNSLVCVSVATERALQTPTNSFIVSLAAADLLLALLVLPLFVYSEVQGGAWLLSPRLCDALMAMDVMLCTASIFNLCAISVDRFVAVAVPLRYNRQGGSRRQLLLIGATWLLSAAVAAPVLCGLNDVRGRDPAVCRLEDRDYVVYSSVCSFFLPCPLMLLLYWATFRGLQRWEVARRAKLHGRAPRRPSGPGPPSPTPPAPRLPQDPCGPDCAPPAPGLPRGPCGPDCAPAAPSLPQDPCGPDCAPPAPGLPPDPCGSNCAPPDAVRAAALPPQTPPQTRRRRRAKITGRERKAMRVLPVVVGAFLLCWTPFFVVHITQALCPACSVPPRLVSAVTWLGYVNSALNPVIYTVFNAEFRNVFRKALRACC
The experiment in a line: Compound Binding Profiles: D4. The settings on record: read-out: D4 binding class.

The target of another assay is α1. Briefly: Compound Binding Profiles: α1.
Another assay deals with T3, M1 (Homo sapiens, UniProt P11229).
T3 sequence (P11229 1-460): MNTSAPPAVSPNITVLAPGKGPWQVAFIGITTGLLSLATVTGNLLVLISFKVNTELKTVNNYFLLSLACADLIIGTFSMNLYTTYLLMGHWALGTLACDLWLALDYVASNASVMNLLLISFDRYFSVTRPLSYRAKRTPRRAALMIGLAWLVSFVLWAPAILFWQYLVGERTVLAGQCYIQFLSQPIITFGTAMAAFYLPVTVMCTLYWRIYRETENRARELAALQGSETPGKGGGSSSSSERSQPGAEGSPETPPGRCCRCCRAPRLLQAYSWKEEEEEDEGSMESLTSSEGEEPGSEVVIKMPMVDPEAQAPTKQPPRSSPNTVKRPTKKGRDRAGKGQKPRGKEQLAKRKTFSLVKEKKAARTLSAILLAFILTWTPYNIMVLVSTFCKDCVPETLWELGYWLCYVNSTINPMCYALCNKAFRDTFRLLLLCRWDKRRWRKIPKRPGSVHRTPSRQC
The experiment in a line: Compound Binding Profiles: M1.

For the next assay, the target named is D2 (Homo sapiens, UniProt P14416). The experiment in a line: Compound Binding Profiles: D2. The settings on record: * = Estimated IC50.
Chain of D2 (P14416 whole entry): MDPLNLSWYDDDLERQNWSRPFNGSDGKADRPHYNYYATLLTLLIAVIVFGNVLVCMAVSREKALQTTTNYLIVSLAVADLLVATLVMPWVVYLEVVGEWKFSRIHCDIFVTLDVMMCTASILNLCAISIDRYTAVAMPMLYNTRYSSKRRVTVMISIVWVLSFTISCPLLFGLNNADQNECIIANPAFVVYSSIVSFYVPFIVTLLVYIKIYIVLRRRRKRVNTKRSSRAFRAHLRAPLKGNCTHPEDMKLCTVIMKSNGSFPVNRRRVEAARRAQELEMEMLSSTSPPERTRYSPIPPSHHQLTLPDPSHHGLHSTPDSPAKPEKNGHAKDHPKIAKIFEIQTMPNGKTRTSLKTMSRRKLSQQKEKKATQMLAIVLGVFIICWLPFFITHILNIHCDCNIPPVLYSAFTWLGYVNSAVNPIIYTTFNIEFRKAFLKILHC
The target of another assay is T4, 5HT2C (Homo sapiens, UniProt P28335).
T4 sequence (P28335 33-458): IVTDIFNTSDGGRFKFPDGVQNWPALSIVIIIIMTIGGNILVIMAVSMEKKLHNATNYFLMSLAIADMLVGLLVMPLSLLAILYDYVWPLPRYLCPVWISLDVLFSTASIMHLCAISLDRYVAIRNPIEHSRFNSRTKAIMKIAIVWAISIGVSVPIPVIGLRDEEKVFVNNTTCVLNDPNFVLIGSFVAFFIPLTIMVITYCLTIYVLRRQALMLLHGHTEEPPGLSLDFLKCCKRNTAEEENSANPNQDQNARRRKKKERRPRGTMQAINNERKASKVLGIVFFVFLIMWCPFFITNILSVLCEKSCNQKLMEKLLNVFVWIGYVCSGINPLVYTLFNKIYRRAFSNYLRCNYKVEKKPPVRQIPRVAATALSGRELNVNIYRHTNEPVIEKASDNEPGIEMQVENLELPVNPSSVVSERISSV
The experiment in a line: Compound Binding Profiles: 5HT2C.

The target of a further assay is α2. Briefly: Compound Binding Profiles: α2.
The nature of assay [2]: Novel object recognition test. Type of assay: in vivo, C57Bl/6J mice. The conditions noted are these: for effect on recognition index / object recognition compared to vehicle: 0.1 mg/kg i.p. The source says: Male C57Bl/6J mice from Jackson Laboratories (Bar Harbor, Me.) were used. Mice were received at 6-weeks of age. Upon receipt, mice were assigned unique identification numbers (tail marked) and were group housed in polycarbonate cages with filter tops. All animals remained housed in groups of four during the remainder of the study. All mice were acclimated to the colony room for at least two weeks prior to testing and were subsequently tested at an average age of 8 weeks of age. During the period of acclimation, mice were examined on a regular basis, handled, and weighed to assure adequate health and suitability. Mice were maintained on a 12/12 light/dark cycle with the light on at 6:00 a.m. The room temperature was maintained between 20 and 23° C. with a relative humidity maintained between 30% and 70%. Chow and water were provided ad libitum for the duration of the study. In each test, animals were randomly assigned across treatment groups.
The pH at the 10 mg/kg was around 5.5.
Rolipram, also dissolved in 10% DMSO was only administered 20 min prior to training on Day 2.
On Day 1, mice were habituated to a circular open field environment (d=18 in, h=15 cm) for one hour in cage groups of four. Each Arena was constructed out of acrylic that was painted black to block reflection. On day 2, mice were placed back into the same arena for a training trial and allowed to explore a set of two identical objects placed equidistance apart from both each other and the arena walls. Individual mice were trained for a total of 15 minutes and then placed back into their home cages. On Day 3, mice were placed back into the same arena in the presence of both the familiar (previously explored) and a novel object. The spatial positions of the familiar and novel object (i.e. left-right sides) were counterbalanced between subjects. The difference in time spent exploring each object during the test trial was used as an index of object recognition and memory retention. Each animals test trial was recorded and these tapes were observed and scored after test completion. The first 10 min of each session was scored and object recognition was computed using the formula: (Time spent with novel object*100)/(Total Time exploring both objects). Tissue Harvest
Data were analyzed by analysis of variance (ANOVA) followed by post-hoc comparisons with Fisher Tests when appropriate. An effect was considered significant if p<0.05. Data are represented as the mean and standard error to the mean.

The mark [3] stands for this setting: * = Estimated IC50, hydrochloride.

Each structure is given as a SMILES string. Counter-ions that a name gives are not always drawn. Like-named read-outs stand apart in the source and are kept apart here.

Chain of 5-HT6 receptor (P50406 whole entry): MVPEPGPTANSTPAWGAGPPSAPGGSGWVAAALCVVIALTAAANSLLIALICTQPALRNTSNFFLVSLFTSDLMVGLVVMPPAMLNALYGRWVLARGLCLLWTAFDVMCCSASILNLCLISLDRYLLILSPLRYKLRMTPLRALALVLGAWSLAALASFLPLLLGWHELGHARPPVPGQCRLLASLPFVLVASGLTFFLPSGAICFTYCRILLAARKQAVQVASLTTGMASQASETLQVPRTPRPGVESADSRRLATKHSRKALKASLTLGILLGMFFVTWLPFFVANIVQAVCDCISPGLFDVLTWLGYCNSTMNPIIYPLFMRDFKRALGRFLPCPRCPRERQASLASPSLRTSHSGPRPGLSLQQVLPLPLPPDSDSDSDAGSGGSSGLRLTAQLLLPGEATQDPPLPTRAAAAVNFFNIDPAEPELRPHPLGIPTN
Chain of D1 (P21728 whole entry): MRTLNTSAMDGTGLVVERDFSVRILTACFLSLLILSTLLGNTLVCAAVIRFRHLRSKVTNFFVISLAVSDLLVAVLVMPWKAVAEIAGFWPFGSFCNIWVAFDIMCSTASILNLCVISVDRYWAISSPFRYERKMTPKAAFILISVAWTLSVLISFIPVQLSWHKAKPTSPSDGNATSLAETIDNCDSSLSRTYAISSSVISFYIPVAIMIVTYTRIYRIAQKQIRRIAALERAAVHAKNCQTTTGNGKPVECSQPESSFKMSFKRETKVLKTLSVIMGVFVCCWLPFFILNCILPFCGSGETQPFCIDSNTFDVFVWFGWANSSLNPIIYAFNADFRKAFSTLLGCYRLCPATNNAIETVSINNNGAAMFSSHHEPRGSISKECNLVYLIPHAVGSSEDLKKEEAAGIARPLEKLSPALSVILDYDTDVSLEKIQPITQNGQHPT
Chain of D3 (P35462 whole entry): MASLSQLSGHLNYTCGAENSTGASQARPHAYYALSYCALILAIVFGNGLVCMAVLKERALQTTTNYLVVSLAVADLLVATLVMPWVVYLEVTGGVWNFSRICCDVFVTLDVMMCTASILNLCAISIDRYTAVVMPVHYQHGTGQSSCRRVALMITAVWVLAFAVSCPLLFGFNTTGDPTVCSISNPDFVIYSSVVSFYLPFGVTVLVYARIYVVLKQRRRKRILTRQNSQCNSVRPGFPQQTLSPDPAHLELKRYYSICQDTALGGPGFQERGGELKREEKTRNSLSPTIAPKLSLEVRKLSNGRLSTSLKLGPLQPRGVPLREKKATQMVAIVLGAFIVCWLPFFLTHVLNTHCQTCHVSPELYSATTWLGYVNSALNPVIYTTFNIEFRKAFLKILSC
Chain of 5HT2A (P28223 whole entry, species assumed): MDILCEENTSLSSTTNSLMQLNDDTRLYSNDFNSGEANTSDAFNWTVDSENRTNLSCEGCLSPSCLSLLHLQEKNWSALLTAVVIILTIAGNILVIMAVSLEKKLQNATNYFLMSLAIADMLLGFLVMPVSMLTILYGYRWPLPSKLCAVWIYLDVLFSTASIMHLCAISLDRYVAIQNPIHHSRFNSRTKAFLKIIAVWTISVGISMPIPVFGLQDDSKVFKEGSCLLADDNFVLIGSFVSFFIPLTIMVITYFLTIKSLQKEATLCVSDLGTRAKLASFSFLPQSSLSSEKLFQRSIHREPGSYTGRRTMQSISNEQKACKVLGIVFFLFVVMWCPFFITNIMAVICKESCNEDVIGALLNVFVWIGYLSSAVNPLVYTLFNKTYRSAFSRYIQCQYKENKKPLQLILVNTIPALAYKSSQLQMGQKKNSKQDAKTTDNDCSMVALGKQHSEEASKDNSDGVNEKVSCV

As to `COc1cc(Cl)cc(C(C)Nc2cc(N3CCNCC3)ccc2S(C)(=O)=O)c1OC` (single isomer, unassigned; (+)) [(+) isomer, [1-(5-Chloro-2,3-dimethoxy-phenyl)-ethyl]-(2-methanesulfonyl-5-piperazin-1-yl-phenyl)-amine hydrochloride], at 5-HT6 receptor (read-out: 5-HT6 Ki), the Ki is 0.018 µM.

At 5-HT6 receptor (5-HT6 Ki), `COc1cc(Cl)cc(C(C)Nc2cc(N3CCNCC3)ccc2S(C)(=O)=O)c1OC` (single isomer, unassigned; (-)) [(−) isomer, [1-(5-Chloro-2,3-dimethoxy-phenyl)-ethyl]-(2-methanesulfonyl-5-piperazin-1-yl-phenyl)-amine hydrochloride] gave a Ki of 0.0045 µM.

Consider `CC(Nc1cc(N2CCNCC2)ccc1S(C)(=O)=O)c1ccccc1` (stereo not shown) [Compound B, 2-(Methylsulfonyl)-N-(1-phenylethyl)-5-(piperazin-1-yl)benzenamine hydrochloride], for which, at 5-HT6 receptor (read-out: 5-HT6 Ki), the Ki worked out at 0.047 µM.

Turning to `COc1cc(OC)cc(C(C)Nc2cc(N3CCNCC3)ccc2C(=O)C(F)(F)F)c1` (stereo not shown) [Compound C, 1-(2-(1-(3,5-Dimethoxyphenyl)ethylamino)-4-(piperazin-1-yl)phenyl)-2,2,2-trifluoroethanone hydrochloride], the Ki at 5-HT6 receptor (read-out: 5-HT6 Ki) came out at 0.034 µM.

Take `COc1cc(OC)cc(C(C)Nc2cc(N3CCNCC3)ccc2S(C)(=O)=O)c1.Cl` (stereo not shown) [Compound D, N-(1-(3,5-Dimethoxyphenyl)ethyl-2-(methylsulfonyl)-5-(piperazin-1-yl)-benzeneamine hydrochloride]: the Ki at 5-HT6 receptor (read-out: 5-HT6 Ki) was determined as 0.027 µM.

`COc1cc(OC)cc(C(C)Nc2cc(N3CCNCC3)ccc2S(C)(=O)=O)c1.Cl` (stereo not shown) [Compound D]: in assay [1], the body weight result is recorded as “significant decrease”, the food intake result is recorded as “significant decrease”, the “plasma level of Insulin” value is on record as “reduction” and the “plasma level of Leptin” value was “reduction”. Further, in assay [1], the “plasma level of NEFA” value is “reduction” and the “plasma level of triglycerides” value is given as “reduction”.

As to `CC(Nc1cc(N2CCNCC2)ccc1S(C)(=O)=O)c1cc(Cl)cc2c1OCCO2` (stereo not shown) [Cpd. E, N-(1-(6-Chloro-2,3-dihydrobenzo[b][1,4]dioxin-8-yl)ethyl)-2-(methylsulfonyl)-5-(piperazin-1-yl)benzenamine hydrochloride], the Ki on 5HT2A is 0.15 µM; at D3, 0.0028 µM; on D1 it was 0.1 to 1 µM; on 5HT1A, 0.1 to 1 µM; on 5-HT6 receptor (binding profile table, read-out: 5HT6 Ki) it was 0.0013 µM; on D4, 0.1 to 1 µM. The compound also gave a Ki on 5HT2C of 0.012 µM. For the same compound, the IC50 was 20 µM at H1; 24 µM on α1 (setting [3]); 10 µM at M1 (* = Estimated IC50); 0.613 µM at D2; 30 µM at α2 (setting [3]).

Regarding `COc1ccc(C2CNC(=O)C2)cc1OC1CCCC1` (stereo not shown) [Rolipram, reference compound], the “Exploration time, Diff of Means Novel vs. Familiar” value in [2] (0.1 mg/kg) amounted to 29.803. In addition, in assay [2] (0.1 mg/kg), the “time exploring novel object versus familiar object” value was “spent more time exploring novel object than the familiar object”. Moreover, the “effect on recognition index / object recognition compared to vehicle” value in assay [2] is listed as “significant, positive effect on object recognition”; in [2] (listed as rolipram) it was “significantly increased the recognition index”. For the same compound, in assay [2] (0.1 mg/kg, 10 min test), the “Memory index, Mean” value came to 71.670. The “Exploration time, Mean” value turned out to be 19.172 in assay [2] (0.1 mg/kg, Familiar Object) and 48.975 in assay [2] (0.1 mg/kg, Novel Object). The “Exploration time, Diff of Means 10% DMSO vs. treatment” value in assay [2] (within Familiar, 0.1 mg/kg) is 4.807. Besides, the “Exploration time, Diff of Means treatment vs. 10% DMSO” value in [2] (within Novel, 0.1 mg/kg) was 17.991.

Take `O=C1Cc2cc(CCN3CCN(c4nsc5ccccc45)CC3)c(Cl)cc2N1` [Ziprasidome, reference compound]: the Ki on 5HT1A was less than 0.01 µM; at 5-HT6 receptor (read-out: 5HT6 binding class), 0.011 to 0.1 µM; at α1 (read-out: α1 binding class) it was 0.1 to 1 µM; at M1 (read-out: M1 binding class) it was less than 0.01 µM; on α2 (read-out: α2 binding class), 0.1 to 1 µM.

In general, IC50 refers to the concentration that gives 50% inhibition.
